Experimental data from patent US20040214184A1, “Small peptides capable of modulating the function of cd66 (ceacam) family members” (priority 2001, published 2004).
Entries after “also recorded” stand apart in the source; their conditions may differ.

Tested on: T-cells
Assay: T-cell activation assay (anti-CD3 stimulated proliferation, 3H-Tdr incorporation)
Assay type: cell-based
Conditions: for activity in the T-cell activation assay (T-cell activation by anti-CD3, proliferation quantitated by 3H-Tdr incorporation): 30 min preincubation, anti-CD3 0.3 μg/ml, 56 h then 16 h with 3H-Tdr
Protocol: FIG. 1. Effects of CD66a peptides on T-cell activation by anti-CD3. T-cells were added to media containing the indicated CD66a peptide S28 ((CD66a-24), (SEQ ID NO:1)) at 150 μg/ml (final concentration) or positive or negative controls in 96 well microtiter plates, and the plates were incubated at 37° C. for 30 min in 5% CO2. Media containing anti-CD3 anitbody was then added and the cells were incubated at […] for 56 hours. Twenty μL of media containing 1 μCi of ^3H-Tdr was then added to each well and the plates were incubated at 37° C. for 30 min in 5% CO2 for an additional 16 hours. The cells were then harvested onto glass fiber filter papers and the radioactivity incorporated into the cells was then determined by liquid scintillation counting. Values are shown as the amount of ^3H-Tdr incorporation in the presence of the indicated peptide as a percent of that incorpoated in the absence of peptide, and represent the means+/−SD of 4 separate determinations.
Cell Preparation. Peripheral blood mononuclear cells (PBMC) were isolated by centrifugation of heparinized blood on a Ficoll/Hypaque (Pharmacia, Uppsala, Sweden) density gradient. Cells from the interface of the gradient were harvested, and resuspended at a concentration of 10^6/ml in medium [RPMI-1640 supplemented with 10% heat inactivated fetal bovine serum, 2 mM L-glutamine, 10 mM HEPES buffer, pH 7.4, 100 U/ml penicillin and 100 ug/ml streptomycin (Gibco, Paisley, U.K.)]. To isolate T-cells, adherent cells were eliminated from PBMC by culture for one hour at 37° C. in 5% CO2 on tissue culture-treated plastic. Remaining B-cells, monocytes, and NK cells were deleted by immunomagnetic negative selection using anti-CD14, anti-CD19, and anti-CD56 microbeads per the manufacturer's recommendations (Miltenyi Biotec GMBH, Bergisch Gladbach, Germany). The purity of the isolated T-cells was >90% as assessed by flow cytometry using FITC-labeled anti-CD3 (Pharmingen, Hamburg, Germany).
T-cell activation assay. Purified T-cells (1×10^5/well) were plated into flat-bottomed 96 well microtiter plates (Greiner, Frickenhausen, Germany) and peptides were added at the indicated concentration. T-cells were incubated with the peptides for 30 min and then stimulated by adding 0.3 μg/ml of anti-CD3 mAb (Pharmingen). The cells were then incubated at 37° C. in 5% CO2 for 56 hours. One μCi of tritiated thymidine (3H-Tdr) (Amersham Buchler, Braunschweig, Germany) in 20 μl of RPMI-1640 was then added to each well, and the cells were cultured for another 16 hours. Cells were then harvested with a cell harvester (Pharmacia LKB-Wallac) onto glass fiber filter paper in a minifold filtration unit (Wallac, Turku, Finland). Individual filters were dissolved in scintillation fluid, and ^3H-Tdr incorporation was measured with a liquid scintillation counter (Pharmacia).

Row | Substance | activity in the T-cell activation assay (T-cell activation by anti-CD3, proliferation quantitated by 3H-Tdr incorporation) (peptide 150 μg/ml) | T-cell proliferation (3H-Tdr incorporation) in the presence of peptide compared with media alone (positive control) (peptide 150 μg/ml, anti-CD3 stimulation, 4 determinations, p<0.05) | cell proliferation (3H-Tdr incorporation) in the presence of peptide compared with the 2 scrambled peptides S159 and S160 (peptides 150 μg/ml, anti-CD3 stimulation, 4 determinations, p<0.05)
1 | IRWFFKN [Peptide S182, smaller part (right) of peptide S28] | had activity |  | 
2 | TGISIRW [Peptide S181, smaller part (middle) of peptide S28] | had activity |  | 
3 | TNDTGIS [Peptide S180, smaller part (left) of peptide S28] | had activity |  | 
4 | TNDTGISIRWFFKN [Peptide S28, 14-amino-acid peptide derived from CD66a] | inhibited T-cell activation by anti-CD3 compared with control; also recorded: found to have activity; also recorded: potent inhibitor of T-cell activation | statistically less than that observed with media alone | statistically less than that observed with the 2 scrambled peptides
